Reference: PubChem BioAssay (NCI)
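48-hour exposure; five concentrations; linearly interpolated endpoints. TGI: concentration producing complete growth inhibition.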

What was measured:
Assay in all cases: NCI anticancer screen, dose series, 48 h
[1] = system: MDA-MB-435
[2] = system: IGROV1 ovarian
[3] = system: ACHN renal
[4] = system: OVCAR-4 ovarian
[5] = system: COLO 205 colon
[6] = system: MDA-N
[7] = system: HCC-2998 colon
[8] = system: NCI/ADR-RES ovarian
[9] = system: OVCAR-8 ovarian
[10] = system: A498 renal
[11] = system: TK-10 renal
[12] = system: SNB-75 CNS
[13] = system: SF-268 CNS
[14] = system: 786-0 renal
[15] = system: U251 CNS
[16] = system: NCI-H226 lung
[17] = system: RPMI-8226 leukemia
[18] = system: M14 melanoma
[19] = system: T-47D breast
[20] = system: HS 578T breast
[21] = system: PC-3 prostate
[22] = system: NCI-H522 lung
[23] = system: HOP-92 NSCLC
[24] = system: MOLT-4 leukemia
[25] = system: SW-620 colon
[26] = system: A549 NSCLC
[27] = system: KM12 colon
[28] = system: OVCAR-5 ovarian
[29] = system: SN12C renal
[30] = system: HCT-116 colon
[31] = system: SF-295 CNS
[32] = system: LOX IMVI melanoma
[33] = system: SK-OV-3 ovarian
[34] = system: HL-60(TB) leukemia
[35] = system: CAKI-1 renal
[36] = system: HCT-15 colon
[37] = system: CCRF-CEM leukemia
[38] = system: HT29 colon
[39] = system: UACC-62 melanoma
[40] = system: MCF7 breast
[41] = system: SR leukemia
[42] = system: BT-549 breast
[43] = system: SNB-19 CNS
[44] = system: SK-MEL-5 melanoma
[45] = system: K-562 leukemia
[46] = system: UACC-257 melanoma
[47] = system: SF-539 CNS
[48] = system: OVCAR-3 ovarian
[49] = system: SK-MEL-2 melanoma
[50] = system: RXF 393 renal
[51] = system: MALME-3M melanoma
[52] = system: MDA-MB-231 breast
[53] = system: HOP-62 NSCLC
[54] = system: EKVX NSCLC
[55] = system: NCI-H23 lung
[56] = system: SK-MEL-28 melanoma
[57] = system: DU-145 prostate
[58] = system: NCI-H460 lung
[59] = system: UO-31 renal

## COc1cc2c(NCCCCCCO[N+](=O)[O-])ncnc2c(OC)c1OC
[1]
  TGI: 42.3 µM
[2]
  TGI: > 84.4 µM
[3]
  TGI: > 100 µM
[4]
  TGI: > 100 µM
[5]
  TGI: 51.6 µM
[6]
  TGI: 56.4 µM
[7]
  TGI: 17.2 µM
[8]
  TGI: 51.3 µM
[9]
  TGI: 64.4 µM
[10]
  TGI: 52 µM
[11]
  TGI: 49.4 µM
[12]
  TGI: 99.3 µM
[13]
  TGI: > 100 µM
[14]
  TGI: 69.2 µM
[15]
  TGI: > 100 µM
[16]
  TGI: 45.5 µM
[17]
  TGI: 32.2 µM
[18]
  TGI: 36.8 µM
[19]
  TGI: > 93.2 µM
[20]
  TGI: > 87.4 µM
[21]
  TGI: 63.4 µM
[22]
  TGI: 52.9 µM
[23]
  TGI: 47.1 µM
[24]
  TGI: > 61.9 µM
[25]
  TGI: 70.5 µM
[26]
  TGI: > 95.7 µM
[27]
  TGI: 33.5 µM
[28]
  TGI: > 92.7 µM
[29]
  TGI: > 71.5 µM
[30]
  TGI: 62.5 µM
[31]
  TGI: 58.8 µM
[32]
  TGI: 49.3 µM
[33]
  TGI: > 100 µM
[34]
  TGI: 54.8 µM
[35]
  TGI: 62.3 µM
[36]
  TGI: 72.7 µM
[37]
  TGI: 67.8 µM
[38]
  TGI: > 62 µM
[39]
  TGI: 43.6 µM
[40]
  TGI: 71.4 µM
[41]
  TGI: 45.1 µM
[42]
  TGI: 56 µM
[43]
  TGI: > 100 µM
[44]
  TGI: 25 µM
[45]
  TGI: > 100 µM
[46]
  TGI: 36.5 µM
[47]
  TGI: 71.1 µM
[48]
  TGI: > 78 µM
[49]
  TGI: 53.9 µM
[50]
  TGI: 75.2 µM
[51]
  TGI: 31.9 µM
[52]
  TGI: 38 µM
[53]
  TGI: 66.7 µM
[54]
  TGI: 68.3 µM
[55]
  TGI: 59.6 µM
[56]
  TGI: > 83 µM
[57]
  TGI: 72.2 µM
[58]
  TGI: 69.8 µM
[59]
  TGI: 21.2 µM

## COC(=O)CCCC(=O)C(=Nc1c(Cl)cccc1Cl)NNc1ccc(Cl)cc1
[1]
  TGI: > 100 µM
[2]
  TGI: > 100 µM
[3]
  TGI: > 100 µM
[4]
  TGI: > 100 µM
[5]
  TGI: 82.4 µM
[6]
  TGI: > 100 µM
[7]
  TGI: > 100 µM
[8]
  TGI: > 100 µM
[9]
  TGI: > 100 µM
[10]
  TGI: 88.6 µM
[11]
  TGI: > 100 µM
[12]
  TGI: > 88.9 µM
[13]
  TGI: > 100 µM
[14]
  TGI: > 100 µM
[15]
  TGI: > 100 µM
[16]
  TGI: > 100 µM
[17]
  TGI: > 100 µM
[18]
  TGI: > 100 µM
[19]
  TGI: > 100 µM
[20]
  TGI: > 100 µM
[21]
  TGI: > 100 µM
[22]
  TGI: > 85.7 µM
[23]
  TGI: > 100 µM
[24]
  TGI: 76.6 µM
[25]
  TGI: > 100 µM
[26]
  TGI: > 100 µM
[27]
  TGI: > 100 µM
[28]
  TGI: > 100 µM
[29]
  TGI: > 100 µM
[30]
  TGI: > 100 µM
[31]
  TGI: > 100 µM
[32]
  TGI: > 100 µM
[33]
  TGI: > 100 µM
[34]
  TGI: > 100 µM
[35]
  TGI: > 100 µM
[36]
  TGI: > 100 µM
[37]
  TGI: 75.3 µM
[38]
  TGI: > 100 µM
[39]
  TGI: > 100 µM
[40]
  TGI: > 100 µM
[41]
  TGI: > 100 µM
[42]
  TGI: > 100 µM
[43]
  TGI: > 100 µM
[44]
  TGI: > 90.9 µM
[45]
  TGI: > 100 µM
[46]
  TGI: > 100 µM
[47]
  TGI: > 100 µM
[48]
  TGI: > 100 µM
[49]
  TGI: > 80.3 µM
[50]
  TGI: > 68.2 µM
[51]
  TGI: > 100 µM
[52]
  TGI: > 100 µM
[53]
  TGI: > 100 µM
[54]
  TGI: > 100 µM
[55]
  TGI: > 100 µM
[56]
  TGI: > 100 µM
[57]
  TGI: > 100 µM
[58]
  TGI: > 100 µM
[59]
  TGI: > 100 µM
